Patent US12503454B2, “LPA receptor antagonists and uses thereof” (Gilead Sciences, Inc., priority 2021, dated 2025)

molecular target: human LPAR1 (Homo sapiens, UniProt Q92633); assay: LPAR1 intracellular calcium mobilization assay (antagonist mode, FLIPR); assay type: cell-based; conditions: CHO-K1 EDG2 cells expressing human LPAR1; test compound 0.5 nM to 10 μM pre-incubated 60 minutes at 37° C., then LPA 18:2 at EC80 concentration (100 nM)
Protocol: In vitro LPAR1 activity was measured in an intracellular calcium mobilization assay. CHO-K1 EDG2 cells (DiscoverX cat #93-0644C2) expressing human LPAR1 (NM_001401.3) were seeded in a total volume of 25 μL of Dulbecco's Modification of Eagle's Medium (DMEM) with 10% Fetal Bovine Serum, 1× PenStrepGlutamine, 300 μg/ml Hygromycin, and 800 μg/ml G418 into 384-well tissue culture plate (Grenier #781091) at 15,000 cells/well and incubated at 37° C. overnight. Prior to testing, 25 μL Calcium Loading Dye Component A (FLIPR Calcium 6 Assay Kit Molecular Device # R8190) and 2.5 mM Probenecid (Invitrogen # P36400, prepared fresh) in Hank's Balanced Salt Solution (Corning #21-023-CV), 20 mM HEPES (Corning #25-060-CI), 0.1% Bovine Serum Albumin (Sigma-Aldrich # A7906-500G) was add to the cells for 60 minutes at 37° C.
Agonist dose curves of LPA 18:2 (Avanti Polar Lipids cat #857138, 0.5 nM to 10 μM) were recorded to determine the LPA 18:2 EC80 for subsequent antagonist assays. For agonist dose curves, cells were removed from the incubator 2 hours after dye loading and transferred to the FLIPR Tetra instrument (Molecular Devices, San Jose, CA). Calcium mobilization was monitored for 5 min and 10 μL 6×LPA in HBSS/20 mM Hepes/0.1% bovine serum albumin (BSA) was added to the cells 5 seconds into the assay.
To determine the LPAR1 antagonist activity of test compounds, cells were pre-incubated with test compound at a dose range of 0.5 nM to 10 μM, followed by LPA at EC80 concentration (100 nM). After dye loading, cells were removed from the incubator and 0.3 μL of 200× antagonist was added. Cells were incubated for 60 minutes at 37° C. Antagonist activity was measured on a FLIPR Tetra. Calcium mobilization was monitored for 3.5 minutes and 10 μL 6×EC80 LPA in HBSS, 20 mM HEPES, and 0.1% BSA was added to the cells 5 seconds into the assay. Signal amplitude (Maximum minus minimum) values were plotted against log10 of antagonist concentration using Dose Response Tool (Gilead Sciences Inc.) to determine […].
To assess the antagonistic potential of exemplified compounds […] were determined for Compounds 1 to 66 in the LPAR1 calcium mobilization assay. The compound numbers correspond to the compound numbers in Examples 1 to 18. N/A=not available.

Chain of human LPAR1 (Q92633 whole entry): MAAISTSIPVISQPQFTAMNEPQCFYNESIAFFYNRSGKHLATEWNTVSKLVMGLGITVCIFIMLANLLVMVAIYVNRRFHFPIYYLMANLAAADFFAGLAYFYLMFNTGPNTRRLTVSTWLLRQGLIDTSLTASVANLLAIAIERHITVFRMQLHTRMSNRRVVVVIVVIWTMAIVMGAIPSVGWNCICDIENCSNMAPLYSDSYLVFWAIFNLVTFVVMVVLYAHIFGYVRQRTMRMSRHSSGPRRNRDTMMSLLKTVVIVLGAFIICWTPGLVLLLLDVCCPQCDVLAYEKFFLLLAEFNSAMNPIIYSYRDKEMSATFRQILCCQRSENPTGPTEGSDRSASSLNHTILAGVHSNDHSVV

Going from C[C@@H](OC(=O)Nc1c(-c2ccc(C(=O)NC34CC(C(F)(F)F)(C3)C4)cn2)nnn1C)c1cc(F)cnc1F [Compound 22, (R)-1-(2,5-difluoro-pyridin-3-yl)ethyl (1-methyl-4-(5-((3-(trifluorometh-yl)bicyclo[1.1.1]-pentan-1-yl)carbam-oyl)pyridin-2-yl)-1H-1,2,3-triazol-5-yl)carbamate] to C[C@@H](OC(=O)Nc1c(-c2ccc(C(=O)NC34CC(C(F)F)(C3)C4)cn2)nnn1C)c1cc(F)cnc1F [Compound 23, (R)-1-(2,5-difluoro-pyridin-3-yl)ethyl (4-(5-((3-(difluoro-methyl)bicyclo-[1.1.1]pentan-1-yl)carbamoyl)-pyridin-2-yl)-1-methyl-1H-1,2,3-triazol-5-yl)-carbamate], the EC50 rises from 84.8 nM to 159 nM (1.9-fold). The first is the more potent here.

Compared with C[C@@H](OC(=O)Nc1c(-c2ccc(C(=O)Nc3cnc(C(F)(F)F)nc3)cn2)nnn1C)c1cc(F)cnc1F [Compound 24, (R)-1-(2,5-difluoro-pyridin-3-yl)ethyl (1-methyl-4-(5-((2-(trifluorometh-yl)pyrimidin-5-yl)-carbamoyl)pyridin-2-yl)-1H-1,2,3-triazol-5-yl)-carbamate], C[C@@H](OC(=O)Nc1c(-c2ccc(C(=O)Nc3ccc(C(F)(F)F)nc3)cn2)nnn1C)c1cc(F)cnc1F [Compound 25, (R)-1-(2,5-difluoro-pyridin-3-yl)ethyl (1-methyl-4-(5-((6-(trifluoromethyl)-pyridin-3-yl)-carbamoyl)pyridin-2-yl)-1H-1,2,3-triazol-5-yl)-carbamate] is 1.6-fold higher in EC50: 222 nM for the first, 364 nM for the second. The first is the more potent here.

First: C[C@@H](OC(=O)Nc1c(-c2ccc(C(=O)NC34CC(c5ccccc5)(C3)C4)cn2)nnn1C)c1cc(F)cnc1F [Compound 26]
Second: C[C@@H](OC(=O)Nc1c(-c2ccc(C(=O)NC34CC(S(C)(=O)=O)(C3)C4)cn2)nnn1C)c1cc(F)cnc1F [Compound 29, (R)-1-(2,5-difluoro-pyridin-3-yl)ethyl (1-methyl-4-(5-((3-(methylsulfon-yl)bicyclo[1.1.1]-pentan-1-yl)carbam-oyl)pyridin-2-yl)-1H-1,2,3-triazol-5-yl)carbamate]
The EC50 of the first is lower: < 4.6 nM for the first, 3420 nM for the second.

First: C[C@@H](OC(=O)Nc1c(-c2ccc(C(=O)Nc3ccnc(F)c3)cn2)nnn1C)c1cc(F)cnc1F [Compound 27, (R)-1-(2,5-difluoro-pyridin-3-yl)ethyl (4-(5-((2-fluoro-pyridin-4-yl)-carbamoyl)pyridin-2-yl)-1-methyl-1H-1,2,3-triazol-5-yl)-carbamate]
Second: C[C@@H](OC(=O)Nc1c(-c2ccc(C(=O)Nc3ccnc(C(F)F)c3)cn2)nnn1C)c1cc(F)cnc1F [Compound 31, (R)-1-(2,5-difluoro-pyridin-3-yl)ethyl (4-(5-((2-(difluoro-methyl)pyridin-4-yl)carbamoyl)-pyridin-2-yl)-1-methyl-1H-1,2,3-triazol-5-yl)-carbamate]
The EC50 of the first is 2.9-fold higher: 42.8 nM for the first, 14.9 nM for the second.

First: C[C@@H](OC(=O)Nc1c(-c2ccc(C(=O)Nc3ccc(C4CC4)nc3)cn2)nnn1C)c1cc(F)cnc1F [Compound 28, (R)-1-(2,5-difluoro-pyridin-3-yl)ethyl (4-(5-((6-cyclo-propylpyridin-3-yl)carbamoyl)-pyridin-2-yl)-1-methyl-1H-1,2,3-triazol-5-yl)-carbamate]
Second: COc1cc(NC(=O)c2ccc(-c3nnn(C)c3NC(=O)O[C@H](C)c3cc(F)cnc3F)nc2)ccn1 [Compound 32, (R)-1-(2,5-difluoro-pyridin-3-yl)ethyl (4-(5-((2-methoxy-pyridin-4-yl)-carbamoyl)pyridin-2-yl)-1-methyl-1H-1,2,3-triazol-5-yl)-carbamate]
The EC50 of the first is 7.6-fold higher: 427 nM for the first, 55.9 nM for the second. The second is the more potent here.

Going from C[C@@H](OC(=O)Nc1c(-c2ccc(C(=O)Nc3cccc(C(F)(F)F)c3)cn2)nnn1C)c1cc(F)cnc1F [Compound 30, (R)-1-(2,5-difluoro-pyridin-3-yl)ethyl (1-methyl-4-(5-((3-(trifluoromethyl)-phenyl)carbam-oyl)pyridin-2-yl)-1H-1,2,3-triazol-5-yl)carbamate] to C[C@@H](OC(=O)Nc1c(-c2ccc(C(=O)Nc3ccc(C#N)c(C(F)(F)F)c3)cn2)nnn1C)c1cc(F)cnc1F [Compound 34, (R)-1-(2,5-difluoro-pyridin-3-yl)ethyl (4-(5-((4-cyano-3-(trifluoromethyl)-phenyl)carbamoyl)-pyridin-2-yl)-1-methyl-1H-1,2,3-triazol-5-yl)-carbamate], the EC50 falls from 93 nM to 47.5 nM (2-fold).

First: C[C@@H](OC(=O)Nc1c(-c2ccc(C(=O)Nc3ccnc(OC(F)F)c3)cn2)nnn1C)c1cc(F)cnc1F [Compound 33, (R)-1-(2,5-difluoro-pyridin-3-yl)ethyl (4-(5-((2-(difluoro-methoxy)pyridin-4-yl)carbamoyl)-pyridin-2-yl)-1-methyl-1H-1,2,3-triazol-5-yl)-carbamate]
Second: C[C@@H](OC(=O)Nc1c(-c2ccc(C(=O)Nc3ccnc(Cl)c3F)cn2)nnn1C)c1cc(F)cnc1F [Compound 35, (R)-1-(2,5-difluoro-pyridin-3-yl)ethyl (4-(5-((2-chloro-3-fluoropyridin-4-yl)-carbamoyl)-pyridin-2-yl)-1-methyl-1H-1,2,3-triazol-5-yl)-carbamate]
The EC50 of the first is 1.9-fold higher: 273 nM for the first, 140 nM for the second.

Compared with C[C@@H](OC(=O)Nc1c(-c2ccc(C(=O)Nc3ccc(-c4ccccc4)cc3)cn2)nnn1C)c1cc(F)cnc1F [Compound 36, (R)-1-(2,5-difluoro-pyridin-3-yl)ethyl (4-(5-([1,1′-biphen-yl]-4-ylcarbamoyl)-pyridin-2-yl)-1-methyl-1H-1,2,3-triazol-5-yl)-carbamate], C[C@@H](OC(=O)Nc1c(-c2ccc(C(=O)Nc3ccc(-c4cccnc4)cc3)cn2)nnn1C)c1cc(F)cnc1F [Compound 40, (R)-1-(2,5-difluoro-pyridin-3-yl)ethyl (1-methyl-4-(5-((4-(pyridin-3-yl)phenyl)carbam-oyl)pyridin-2-yl)-1H-1,2,3-triazol-5-yl)carbamate] is 2.1-fold lower in EC50: 15.6 nM for the first, 7.6 nM for the second.

C[C@@H](OC(=O)Nc1c(-c2ccc(C(=O)N[C@@H]3C[C@H]3c3ccccc3)cn2)nnn1C)c1cc(F)cnc1F [Compound 37, (R)-1-(2,5-difluoro-pyridin-3-yl)ethyl (1-methyl-4-(5-(((1R,2S)-2-phenyl-cyclopropyl)carbam-oyl)pyridin-2-yl)-1H-1,2,3-triazol-5-yl)carbamate] and C[C@@H](OC(=O)Nc1c(-c2ccc(C(=O)NC3CC(c4ccccc4)C3)cn2)nnn1C)c1cc(F)cnc1F (stereo partly drawn) [Compound 44, (R)-1-(2,5-difluoro-pyridin-3-yl)ethyl (1-methyl-4-(5-((3-phenylcyclo-butyl)carbamoyl)-pyridin-2-yl)-1H-1,2,3-triazol-5-yl)-carbamate] are within 1.5-fold of each other in EC50: 196 nM for the first, 273 nM for the second.

Going from C[C@@H](OC(=O)Nc1c(-c2ccc(C(=O)Nc3cnnc(Cl)c3)cn2)nnn1C)c1cc(F)cnc1F [Compound 38, (R)-1-(2,5-difluoro-pyridin-3-yl)ethyl (4-(5-((6-chloro-pyridazin-4-yl)-carbamoyl)pyridin-2-yl)-1-methyl-1H-1,2,3-triazol-5-yl)-carbamate] to C[C@@H](OC(=O)Nc1c(-c2ccc(C(=O)Nc3cc(Cl)nc(C(F)(F)F)c3)cn2)nnn1C)c1cc(F)cnc1F [Compound 43, (R)-1-(2,5-difluoro-pyridin-3-yl)ethyl (4-(5-((2-chloro-6-(trifluoromethyl)-pyridin-4-yl)-carbamoyl)pyridin-2-yl)-1-methyl-1H-1,2,3-triazol-5-yl)-carbamate], the EC50 falls from 24.4 nM to 9 nM (2.7-fold).

First: Cc1nnc(-c2ccc(NC(=O)c3ccc(-c4nnn(C)c4NC(=O)O[C@H](C)c4cc(F)cnc4F)nc3)cc2)o1 [Compound 39, (R)-1-(2,5-difluoro-pyridin-3-yl)ethyl (1-methyl-4-(5-((4-(5-methyl-1,3,4-oxadiazol-2-yl)phenyl)-carbamoyl)-pyridin-2-yl)-1H-1,2,3-triazol-5-yl)carbamate]
Second: C[C@@H](OC(=O)Nc1c(-c2ccc(C(=O)Nc3ccc(-c4ccncc4)cc3)cn2)nnn1C)c1cc(F)cnc1F [Compound 41, (R)-1-(2,5-difluoro-pyridin-3-yl)ethyl (1-methyl-4-(5-((4-(pyridin-4-yl)phenyl)carbam-oyl)pyridin-2-yl)-1H-1,2,3-triazol-5-yl)carbamate]
The EC50 of the first is 6.7-fold lower: 9.1 nM for the first, 61 nM for the second. The first is the more potent here.

C[C@@H](OC(=O)Nc1c(-c2ccc(C(=O)Nc3cnc(C(F)(F)F)s3)cn2)nnn1C)c1cc(F)cnc1F [Compound 42, (R)-1-(2,5-difluoro-pyridin-3-yl)ethyl (1-methyl-4-(5-((2-(trifluoromethyl)-thiazol-5-yl)-carbamoyl)pyridin-2-yl)-1H-1,2,3-triazol-5-yl)-carbamate] showed an EC50 of 10.1 nM.
